# Measurements published in ChEMBL document CHEMBL5291721, “A preclinical secondary pharmacology resource illuminates target-adverse drug reaction associations of marketed drugs” (Nat Commun, 2023).
# Experiments:
# [1] = biological target: T1, Gastric inhibitory polypeptide receptor (Homo sapiens, UniProt P48546)
# T1 sequence (P48546 whole entry): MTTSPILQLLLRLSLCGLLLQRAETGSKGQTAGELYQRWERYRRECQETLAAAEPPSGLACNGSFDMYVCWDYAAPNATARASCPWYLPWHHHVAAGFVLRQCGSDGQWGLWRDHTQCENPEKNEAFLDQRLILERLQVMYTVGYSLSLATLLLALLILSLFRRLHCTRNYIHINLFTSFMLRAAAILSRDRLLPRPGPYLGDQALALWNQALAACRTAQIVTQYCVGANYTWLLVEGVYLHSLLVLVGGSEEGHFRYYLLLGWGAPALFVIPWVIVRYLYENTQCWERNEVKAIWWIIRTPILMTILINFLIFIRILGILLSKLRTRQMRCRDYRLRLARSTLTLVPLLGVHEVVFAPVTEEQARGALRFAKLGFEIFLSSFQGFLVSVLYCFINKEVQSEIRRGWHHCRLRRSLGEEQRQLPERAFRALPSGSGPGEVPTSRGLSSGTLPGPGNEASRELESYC
# [2] = biological target: Neurotensin receptor type 1 (Homo sapiens, UniProt P30989)
# [3] = biological target: T2, Endothelin receptor type B (Homo sapiens, UniProt P24530)
# T2 sequence (P24530 whole entry): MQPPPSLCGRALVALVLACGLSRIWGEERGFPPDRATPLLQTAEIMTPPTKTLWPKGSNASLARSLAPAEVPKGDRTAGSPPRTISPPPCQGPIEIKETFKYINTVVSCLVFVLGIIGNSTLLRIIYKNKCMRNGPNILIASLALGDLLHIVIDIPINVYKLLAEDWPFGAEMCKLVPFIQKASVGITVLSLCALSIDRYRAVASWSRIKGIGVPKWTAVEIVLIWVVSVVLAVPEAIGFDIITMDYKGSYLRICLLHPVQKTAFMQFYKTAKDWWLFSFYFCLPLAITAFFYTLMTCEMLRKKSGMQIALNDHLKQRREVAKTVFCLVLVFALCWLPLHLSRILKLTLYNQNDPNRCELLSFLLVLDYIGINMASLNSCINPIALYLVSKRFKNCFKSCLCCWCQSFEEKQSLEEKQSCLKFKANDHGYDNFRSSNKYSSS
# [4] = biological target: T3, 5-hydroxytryptamine receptor 1A (Homo sapiens, UniProt P08908)
# T3 sequence (P08908 whole entry): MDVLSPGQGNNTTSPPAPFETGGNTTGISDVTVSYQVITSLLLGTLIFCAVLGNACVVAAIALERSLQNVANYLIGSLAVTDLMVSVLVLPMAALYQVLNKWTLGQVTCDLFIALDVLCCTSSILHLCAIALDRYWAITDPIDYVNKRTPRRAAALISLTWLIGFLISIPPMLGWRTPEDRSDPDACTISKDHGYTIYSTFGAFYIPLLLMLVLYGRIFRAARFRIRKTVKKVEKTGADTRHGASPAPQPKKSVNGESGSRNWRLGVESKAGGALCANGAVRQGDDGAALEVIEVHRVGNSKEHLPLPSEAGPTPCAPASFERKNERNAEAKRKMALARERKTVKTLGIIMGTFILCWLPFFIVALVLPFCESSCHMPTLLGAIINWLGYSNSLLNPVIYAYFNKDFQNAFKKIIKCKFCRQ
# Glucocorticoid receptor = biological target: T4, Glucocorticoid receptor (Homo sapiens, UniProt P04150)
# T4 sequence (P04150 whole entry): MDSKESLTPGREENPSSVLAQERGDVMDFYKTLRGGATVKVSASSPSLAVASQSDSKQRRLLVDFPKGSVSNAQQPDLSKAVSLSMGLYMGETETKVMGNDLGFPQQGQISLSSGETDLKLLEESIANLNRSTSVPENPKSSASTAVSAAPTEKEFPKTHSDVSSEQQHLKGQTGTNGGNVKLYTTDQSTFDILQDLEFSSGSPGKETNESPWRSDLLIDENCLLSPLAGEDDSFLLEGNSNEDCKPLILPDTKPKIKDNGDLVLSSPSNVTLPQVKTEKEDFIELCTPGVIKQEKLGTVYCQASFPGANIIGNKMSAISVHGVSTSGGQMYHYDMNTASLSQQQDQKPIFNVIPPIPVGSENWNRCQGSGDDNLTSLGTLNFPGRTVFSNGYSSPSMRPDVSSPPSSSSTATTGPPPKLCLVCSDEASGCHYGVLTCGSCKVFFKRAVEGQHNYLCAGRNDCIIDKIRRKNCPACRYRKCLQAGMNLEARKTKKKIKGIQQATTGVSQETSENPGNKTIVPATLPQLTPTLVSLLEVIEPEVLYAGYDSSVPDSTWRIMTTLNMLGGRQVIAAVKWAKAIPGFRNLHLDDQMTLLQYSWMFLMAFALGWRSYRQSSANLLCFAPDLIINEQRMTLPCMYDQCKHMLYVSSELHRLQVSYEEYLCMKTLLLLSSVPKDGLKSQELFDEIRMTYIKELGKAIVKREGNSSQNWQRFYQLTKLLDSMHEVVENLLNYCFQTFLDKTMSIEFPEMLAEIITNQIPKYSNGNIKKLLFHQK
# [5] = biological target: T5, Peroxisome proliferator-activated receptor gamma (Homo sapiens, UniProt P37231); format: functional
# T5 sequence (P37231 whole entry): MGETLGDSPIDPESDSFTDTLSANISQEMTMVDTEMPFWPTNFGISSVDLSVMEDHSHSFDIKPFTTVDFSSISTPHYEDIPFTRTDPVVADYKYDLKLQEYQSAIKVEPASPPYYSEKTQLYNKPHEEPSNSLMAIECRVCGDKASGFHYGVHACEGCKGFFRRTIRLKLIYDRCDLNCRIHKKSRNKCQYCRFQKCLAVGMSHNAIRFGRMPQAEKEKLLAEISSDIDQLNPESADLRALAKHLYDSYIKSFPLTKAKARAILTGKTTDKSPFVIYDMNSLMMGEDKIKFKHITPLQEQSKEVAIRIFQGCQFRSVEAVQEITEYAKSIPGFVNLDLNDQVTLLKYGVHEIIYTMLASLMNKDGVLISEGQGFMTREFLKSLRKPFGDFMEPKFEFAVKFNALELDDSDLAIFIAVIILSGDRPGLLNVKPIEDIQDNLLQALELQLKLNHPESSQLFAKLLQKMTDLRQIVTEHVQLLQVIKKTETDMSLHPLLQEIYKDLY
# Histamine H1 receptor = Histamine H1 receptor (Homo sapiens, UniProt P35367)
# [6] = biological target: Muscarinic acetylcholine receptor M3 (Homo sapiens, UniProt P20309)
# Further: assay procedure not described here.
# Histamine H1 receptor, sequence (P35367 whole entry): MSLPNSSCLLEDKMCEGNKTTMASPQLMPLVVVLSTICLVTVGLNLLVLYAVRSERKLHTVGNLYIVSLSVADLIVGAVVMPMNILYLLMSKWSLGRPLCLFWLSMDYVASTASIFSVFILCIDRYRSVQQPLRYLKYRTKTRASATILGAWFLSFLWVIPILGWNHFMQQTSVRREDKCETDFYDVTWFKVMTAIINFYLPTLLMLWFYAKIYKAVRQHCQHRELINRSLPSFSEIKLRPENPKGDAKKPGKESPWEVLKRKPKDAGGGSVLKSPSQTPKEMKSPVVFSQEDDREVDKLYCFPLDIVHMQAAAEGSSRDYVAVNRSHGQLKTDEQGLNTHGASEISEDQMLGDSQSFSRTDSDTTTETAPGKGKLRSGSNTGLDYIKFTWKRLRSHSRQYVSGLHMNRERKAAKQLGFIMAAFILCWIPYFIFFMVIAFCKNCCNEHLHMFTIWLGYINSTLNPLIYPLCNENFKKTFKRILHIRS
# Muscarinic acetylcholine receptor M3, sequence (P20309 whole entry): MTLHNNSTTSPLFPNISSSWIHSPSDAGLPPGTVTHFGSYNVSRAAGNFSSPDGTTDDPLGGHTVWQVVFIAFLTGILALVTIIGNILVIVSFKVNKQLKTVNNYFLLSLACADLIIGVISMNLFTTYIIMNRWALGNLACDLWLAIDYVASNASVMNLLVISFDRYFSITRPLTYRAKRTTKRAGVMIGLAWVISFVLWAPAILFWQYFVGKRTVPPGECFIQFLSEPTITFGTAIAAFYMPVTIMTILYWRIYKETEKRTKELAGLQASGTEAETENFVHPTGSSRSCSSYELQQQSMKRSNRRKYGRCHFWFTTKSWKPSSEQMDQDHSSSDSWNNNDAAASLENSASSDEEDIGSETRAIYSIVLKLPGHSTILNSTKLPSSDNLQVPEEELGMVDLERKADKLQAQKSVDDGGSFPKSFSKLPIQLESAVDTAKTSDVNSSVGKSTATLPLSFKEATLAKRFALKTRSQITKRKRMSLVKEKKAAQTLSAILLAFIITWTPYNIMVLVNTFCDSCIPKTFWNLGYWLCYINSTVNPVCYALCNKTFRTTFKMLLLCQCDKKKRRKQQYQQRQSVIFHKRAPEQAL
# Neurotensin receptor type 1, sequence (P30989 whole entry): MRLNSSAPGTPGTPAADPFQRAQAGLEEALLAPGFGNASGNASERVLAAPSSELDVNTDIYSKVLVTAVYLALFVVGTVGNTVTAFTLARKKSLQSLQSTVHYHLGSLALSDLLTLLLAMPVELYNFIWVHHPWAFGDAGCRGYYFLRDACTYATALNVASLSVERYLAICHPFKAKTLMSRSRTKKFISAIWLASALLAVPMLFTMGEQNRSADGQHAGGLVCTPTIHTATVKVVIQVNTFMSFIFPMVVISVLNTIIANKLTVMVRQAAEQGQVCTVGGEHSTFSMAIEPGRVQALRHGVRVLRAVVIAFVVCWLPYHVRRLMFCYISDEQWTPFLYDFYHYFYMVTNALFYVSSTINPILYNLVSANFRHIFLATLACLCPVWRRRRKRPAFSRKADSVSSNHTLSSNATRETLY
smiles,measurement,setting,value
CC[C@@H](CO)NC(=O)[C@@H]1C=C2c3cccc4c3c(cn4C)C[C@H]2N(C)C1 [METHYSERGIDE],AC50,[1],> 30 µM
same,AC50,[2],> 30 µM
same,AC50,[3],> 30 µM
same,AC50,[4],0.192 µM
CC(C)[C@H](N)C(=O)OCCOCn1cnc2c(=O)[nH]c(N)nc21 [VALACYCLOVIR],AC50,[1],> 30 µM
same,AC50,[2],> 30 µM
same,AC50,Glucocorticoid receptor,> 30 µM
same,AC50,[3],> 30 µM
same,AC50,[4],> 10 µM
O=C(O)Cc1ccccc1Nc1c(Cl)cccc1Cl [DICLOFENAC],AC50,[1],> 30 µM
same,AC50,[2],> 30 µM
same,AC50,[3],> 30 µM
same,AC50,[4],> 10 µM
C[C@]12C=CC(=O)C=C1CC[C@H]1[C@@H]3C[C@@H](O)[C@](O)(C(=O)CO)[C@@]3(C)C[C@H](O)[C@@]12F [TRIAMCINOLONE],AC50,Glucocorticoid receptor,0.0091 µM
CC(C)(O/N=C(\C(=O)N[C@@H]1C(=O)N2C(C(=O)[O-])=C(C[n+]3ccccc3)CS[C@H]12)c1csc(N)n1)C(=O)O [CEFTAZIDIME],AC50,Glucocorticoid receptor,> 30 µM
same,AC50,[5],> 300 µM
same,AC50,Histamine H1 receptor,> 300 µM
same,AC50,[6],> 300 µM
C[N+](C)(C)CCOP(=O)(O)OP(=O)([O-])OC[C@H]1O[C@@H](n2ccc(N)nc2=O)[C@H](O)[C@@H]1O [CITICOLINE],AC50,Histamine H1 receptor,> 30 µM
same,AC50,[6],> 30 µM
O=C1Cc2cc(CCN3CCN(c4nsc5ccccc45)CC3)c(Cl)cc2N1 [ZIPRASIDONE],AC50,[1],> 30 µM
same,AC50,[2],> 30 µM
same,AC50,Glucocorticoid receptor,> 30 µM
same,AC50,[6],> 10 µM
same,AC50,[3],> 30 µM
same,AC50,[4],0.008 µM
COc1ccccc1OC1(C)OC(=O)c2ccccc2O1 (stereo not given) [GUAIMESAL],AC50,Glucocorticoid receptor,> 30 µM
CN(CCOc1ccc(CC2SC(=O)NC2=O)cc1)c1ccccn1 (stereo not given) [ROSIGLITAZONE],AC50,[1],> 30 µM
same,AC50,[2],> 30 µM
same,AC50,[3],> 30 µM
same,AC50,[4],> 10 µM
CC(C(=O)O)c1ccc2oc(-c3ccc(Cl)cc3)nc2c1 (stereo not given) [BENOXAPROFEN],AC50,Glucocorticoid receptor,> 30 µM
Cc1nnc(SCC2=C(C(=O)O)N3C(=O)[C@@H](NC(=O)Cn4cnnn4)[C@H]3SC2)s1 [CEFAZOLIN],AC50,[5],> 300 µM
same,AC50,Histamine H1 receptor,> 300 µM
same,AC50,[6],> 300 µM
Clc1ccc(Cn2c(CN3CCCC3)nc3ccccc32)cc1 [CLEMIZOLE],AC50,[5],> 30 µM
same,AC50,Histamine H1 receptor,0.0034 µM
same,AC50,[6],> 30 µM
CNC(=C[N+](=O)[O-])NCCSCc1csc(CN(C)C)n1 [NIZATIDINE],AC50,Glucocorticoid receptor,> 10 µM
CCCCCCCN(CC)CCCC(O)c1ccc(NS(C)(=O)=O)cc1 (stereo not given) [IBUTILIDE],AC50,Glucocorticoid receptor,> 30 µM
same,AC50,Histamine H1 receptor,> 30 µM
same,AC50,[6],21 µM
Cc1onc(-c2c(F)cccc2Cl)c1C(=O)N[C@@H]1C(=O)N2[C@@H]1SC(C)(C)[C@@H]2C(=O)O [FLOXACILLIN],AC50,[5],> 30 µM
same,AC50,Histamine H1 receptor,> 30 µM
same,AC50,[6],> 30 µM
O=C(O)Cc1ccccc1Oc1ccc(Cl)cc1Cl [FENCLOFENAC],AC50,[1],> 30 µM
same,AC50,[2],> 30 µM
same,AC50,Glucocorticoid receptor,> 30 µM
same,AC50,Histamine H1 receptor,> 10 µM
same,AC50,[6],> 10 µM
same,AC50,[3],> 30 µM
same,AC50,[4],> 10 µM
S=P(N1CC1)(N1CC1)N1CC1 [THIOTEPA],AC50,[5],> 30 µM
same,AC50,[6],9.3 µM
CCC(=O)O[C@]1(C(=O)CCl)[C@@H](C)C[C@H]2[C@@H]3CCC4=CC(=O)C=C[C@]4(C)[C@@]3(F)[C@@H](O)C[C@@]21C [CLOBETASOL PROPIONATE],AC50,Glucocorticoid receptor,0.0078 µM
same,AC50,[5],> 30 µM
CCOc1cc([C@@H](CS(C)(=O)=O)N2C(=O)c3cccc(NC(C)=O)c3C2=O)ccc1OC,AC50,[5],> 30 µM
same,AC50,Histamine H1 receptor,> 30 µM
same,AC50,[6],> 30 µM
CC1(C)S[C@@H]2[C@H](NC(=O)C(C(=O)O)c3ccccc3)C(=O)N2[C@H]1C(=O)O (stereo not given in full) [CARBENICILLIN],AC50,Glucocorticoid receptor,> 30 µM
same,AC50,[5],> 30 µM
same,AC50,Histamine H1 receptor,> 30 µM
same,AC50,[6],> 30 µM
CNC[C@H](O)c1ccc(O)c(O)c1 [EPINEPHRINE],AC50,[5],> 30 µM
Cn1cc(C(=O)[C@@H]2CCc3nc[nH]c3C2)c2ccccc21 [RAMOSETRON],AC50,Glucocorticoid receptor,> 30 µM
same,AC50,Histamine H1 receptor,> 30 µM
same,AC50,[6],> 30 µM
Cc1nc(Nc2ncc(C(=O)Nc3c(C)cccc3Cl)s2)cc(N2CCN(CCO)CC2)n1 [DASATINIB],AC50,Histamine H1 receptor,> 30 µM
same,AC50,[6],> 30 µM
same,AC50,[3],> 10 µM
same,AC50,[4],21.9 µM
Cc1ccc(C)c(OCCCC(C)(C)C(=O)O)c1 [GEMFIBROZIL],AC50,[1],> 30 µM
same,AC50,[2],> 30 µM
same,AC50,[3],> 30 µM
same,AC50,[4],> 10 µM
CCCNC(=O)NS(=O)(=O)c1ccc(Cl)cc1 [CHLORPROPAMIDE],AC50,[1],> 30 µM
same,AC50,[2],> 30 µM
same,AC50,Glucocorticoid receptor,> 30 µM
same,AC50,[3],> 30 µM
same,AC50,[4],> 10 µM
COc1cc(C(C)=O)ccc1OCCCN1CCC(c2noc3cc(F)ccc23)CC1 [ILOPERIDONE],AC50,[5],> 30 µM
same,AC50,[6],> 30 µM
same,AC50,[4],0.0785 µM
COc1cc(C(=O)NS(=O)(=O)c2ccccc2C)ccc1Cc1cn(C)c2ccc(NC(=O)OC3CCCC3)cc12 [ZAFIRLUKAST],AC50,Glucocorticoid receptor,24.9 µM
CN1Cc2c(N)cccc2C(c2ccccc2)C1 (stereo not given) [NOMIFENSINE],AC50,Glucocorticoid receptor,> 30 µM
same,AC50,Histamine H1 receptor,30 µM
same,AC50,[6],> 30 µM
CC=CC1=C(C(=O)O)N2C(=O)[C@@H](NC(=O)[C@H](N)c3ccc(O)cc3)[C@H]2SC1 [CEFPROZIL],AC50,Glucocorticoid receptor,> 30 µM
same,AC50,Histamine H1 receptor,> 30 µM
same,AC50,[6],> 30 µM
CC(C)NC(=N)NC(=N)Nc1ccc(Cl)c(Cl)c1 [CHLORPROGUANIL],AC50,Histamine H1 receptor,> 30 µM
same,AC50,[6],> 30 µM
CC(CN1c2ccccc2Sc2ccccc21)N(C)C (stereo not given) [PROMETHAZINE],AC50,[1],> 30 µM
same,AC50,[2],> 30 µM
same,AC50,[3],> 30 µM
same,AC50,[4],6.7 µM
CC[C@H](C)C(=O)O[C@H]1C[C@@H](C)C=C2C=C[C@H](C)[C@H](CC[C@@H]3C[C@@H](O)CC(=O)O3)[C@H]21 [LOVASTATIN],AC50,[1],> 30 µM
same,AC50,[2],> 30 µM
same,AC50,Glucocorticoid receptor,> 30 µM
same,AC50,[3],> 30 µM
same,AC50,[4],> 10 µM
CC(C)C[C@H](NC(=O)[C@@H](O)[C@H](N)Cc1ccccc1)C(=O)O [UBENIMEX],AC50,Glucocorticoid receptor,20 µM
CC(=O)Nc1ccc(CC(=O)O)cc1 [ACTARIT],AC50,Glucocorticoid receptor,> 30 µM
same,AC50,Histamine H1 receptor,> 30 µM
same,AC50,[6],> 30 µM
